Test results reported in ChEMBL document CHEMBL1909046, “DrugMatrix in vitro pharmacology data”.

Key:
[1] = target: T1, Calcitonin receptor (Homo sapiens, UniProt P30988); assay type: cell membranes, Membrane; conditions: t47d; note: in other assays of this panel Not Active means under 50% inhibition at 10 µM
T1 sequence (P30988 whole entry): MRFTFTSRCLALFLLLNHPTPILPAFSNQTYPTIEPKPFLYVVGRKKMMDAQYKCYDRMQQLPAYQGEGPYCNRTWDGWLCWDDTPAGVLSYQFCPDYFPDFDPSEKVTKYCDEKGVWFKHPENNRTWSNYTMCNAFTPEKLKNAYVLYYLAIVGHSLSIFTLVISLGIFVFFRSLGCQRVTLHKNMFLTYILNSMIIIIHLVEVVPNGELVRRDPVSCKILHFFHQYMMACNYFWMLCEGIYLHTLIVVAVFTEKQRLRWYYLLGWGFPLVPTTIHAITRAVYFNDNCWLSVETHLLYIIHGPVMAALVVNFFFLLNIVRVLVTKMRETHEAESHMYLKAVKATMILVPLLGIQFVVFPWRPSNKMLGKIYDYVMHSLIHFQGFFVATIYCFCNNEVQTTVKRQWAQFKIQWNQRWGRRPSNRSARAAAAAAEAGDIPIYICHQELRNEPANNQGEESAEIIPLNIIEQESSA

[2] = target: T2, Neutrophil elastase (Homo sapiens, UniProt P08246); assay type: tissue-based;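 note: inhibition of neutrophil elastase enzyme activity, measured with a p-nitroanilide-linked peptide substrate; in other assays of this panel Not Active means under 50% inhibition at 10 µM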
T2 sequence (P08246 whole entry): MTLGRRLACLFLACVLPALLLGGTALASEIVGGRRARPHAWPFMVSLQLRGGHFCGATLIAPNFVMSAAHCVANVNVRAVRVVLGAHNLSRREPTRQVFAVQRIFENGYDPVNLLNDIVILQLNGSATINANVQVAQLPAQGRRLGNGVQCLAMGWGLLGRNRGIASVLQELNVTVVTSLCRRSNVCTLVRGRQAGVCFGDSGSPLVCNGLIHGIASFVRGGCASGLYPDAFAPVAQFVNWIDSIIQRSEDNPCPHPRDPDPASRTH

[3] = target: Tyrosine-protein kinase Fyn (Homo sapiens, UniProt P06241); assay: biochemical; assay type: cell-based, Insect cells; conditions: insect cells;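 note: enzymatic inhibition of Fyn kinase activity measured with Poly(Glu:Tyr) as the phosphorylation substrate; in other assays of this panel Not Active means under 50% inhibition at 10 µM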
Sequence of Tyrosine-protein kinase Fyn (P06241 whole entry): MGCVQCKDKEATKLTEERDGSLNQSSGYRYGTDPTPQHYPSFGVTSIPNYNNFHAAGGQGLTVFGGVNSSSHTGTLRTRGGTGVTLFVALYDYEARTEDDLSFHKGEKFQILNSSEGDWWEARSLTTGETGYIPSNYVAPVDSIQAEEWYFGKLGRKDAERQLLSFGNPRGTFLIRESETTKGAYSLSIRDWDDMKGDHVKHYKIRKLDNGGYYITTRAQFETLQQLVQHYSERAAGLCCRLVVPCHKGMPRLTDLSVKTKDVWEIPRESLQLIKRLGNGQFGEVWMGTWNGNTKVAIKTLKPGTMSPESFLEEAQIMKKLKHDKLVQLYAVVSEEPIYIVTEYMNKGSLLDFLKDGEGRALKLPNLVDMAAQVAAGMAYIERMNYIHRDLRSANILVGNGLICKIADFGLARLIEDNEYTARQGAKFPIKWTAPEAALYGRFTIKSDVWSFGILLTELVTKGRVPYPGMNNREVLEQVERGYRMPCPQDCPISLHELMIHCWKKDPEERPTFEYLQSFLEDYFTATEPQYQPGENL

[4] = target: T3, C-X-C chemokine receptor type 1 (Homo sapiens, UniProt P25024); note: in other assays of this panel Not Active means under 50% inhibition at 10 µM
T3 sequence (P25024 whole entry): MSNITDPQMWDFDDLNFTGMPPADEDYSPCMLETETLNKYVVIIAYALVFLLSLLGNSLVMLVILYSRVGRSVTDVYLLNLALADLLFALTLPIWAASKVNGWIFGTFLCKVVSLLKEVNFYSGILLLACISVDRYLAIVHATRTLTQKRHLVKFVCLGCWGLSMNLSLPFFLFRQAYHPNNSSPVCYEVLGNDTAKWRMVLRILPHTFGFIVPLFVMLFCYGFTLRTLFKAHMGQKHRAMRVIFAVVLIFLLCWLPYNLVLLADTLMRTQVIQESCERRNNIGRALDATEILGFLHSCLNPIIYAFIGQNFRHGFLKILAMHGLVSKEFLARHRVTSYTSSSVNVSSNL

[5] = target: T4, Cysteinyl leukotriene receptor 1 (Homo sapiens, UniProt Q9Y271); assay type: cell membranes, CHO-K1, Membrane; conditions: cho-k1; note: in other assays of this panel Not Active means under 50% inhibition at 10 µM
T4 sequence (Q9Y271 whole entry): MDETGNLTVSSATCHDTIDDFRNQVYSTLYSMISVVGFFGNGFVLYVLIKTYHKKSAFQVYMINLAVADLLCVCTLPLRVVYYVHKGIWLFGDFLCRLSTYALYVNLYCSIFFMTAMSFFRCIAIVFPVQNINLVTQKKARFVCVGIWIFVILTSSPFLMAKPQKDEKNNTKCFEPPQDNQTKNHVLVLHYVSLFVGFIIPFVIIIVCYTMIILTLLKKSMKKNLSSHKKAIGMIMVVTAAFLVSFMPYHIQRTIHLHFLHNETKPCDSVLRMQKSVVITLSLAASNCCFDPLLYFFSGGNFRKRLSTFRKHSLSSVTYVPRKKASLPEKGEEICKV

[6] = DRUGMATRIX: Glutamate, NMDA, Phencyclidine radioligand binding (ligand: [3H] TCP); assay type: cell membranes, Rattus norvegicus, Wistar, Cerebral cortex, Membrane; conditions: Not Active = under 50% inhibition at 10 µM
[7] = DRUGMATRIX: Glutamate, NMDA, Agonism radioligand binding (ligand: [3H] CGP-39653); assay type: cell membranes, Rattus norvegicus, Wistar, Cerebral cortex, Membrane; conditions: Not Active = under 50% inhibition at 10 µM
[8] = target: Cytochrome P450 2E1 (Homo sapiens, UniProt P05181); conditions: bti-tn-5b1-4; note: in other assays of this panel Not Active means under 50% inhibition at 10 µM
Sequence of Cytochrome P450 2E1 (P05181 whole entry): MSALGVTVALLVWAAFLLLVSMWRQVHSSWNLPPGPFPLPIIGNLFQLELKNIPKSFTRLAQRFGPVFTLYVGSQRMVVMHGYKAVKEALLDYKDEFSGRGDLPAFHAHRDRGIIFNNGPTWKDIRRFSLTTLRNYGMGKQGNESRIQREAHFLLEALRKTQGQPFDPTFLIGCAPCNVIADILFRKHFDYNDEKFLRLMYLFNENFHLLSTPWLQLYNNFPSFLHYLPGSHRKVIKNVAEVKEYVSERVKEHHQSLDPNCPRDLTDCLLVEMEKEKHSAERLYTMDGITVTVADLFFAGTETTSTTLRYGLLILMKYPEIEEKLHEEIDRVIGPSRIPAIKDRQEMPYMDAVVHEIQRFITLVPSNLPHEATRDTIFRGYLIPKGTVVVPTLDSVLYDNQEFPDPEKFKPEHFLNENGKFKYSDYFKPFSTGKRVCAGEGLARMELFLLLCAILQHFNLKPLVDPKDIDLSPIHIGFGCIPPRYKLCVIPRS

[9] = target: T5, Substance-K receptor (Homo sapiens, UniProt P21452); assay type: cell membranes, CHO, Membrane; conditions: cho; note: in other assays of this panel Not Active means under 50% inhibition at 10 µM
T5 sequence (P21452 whole entry): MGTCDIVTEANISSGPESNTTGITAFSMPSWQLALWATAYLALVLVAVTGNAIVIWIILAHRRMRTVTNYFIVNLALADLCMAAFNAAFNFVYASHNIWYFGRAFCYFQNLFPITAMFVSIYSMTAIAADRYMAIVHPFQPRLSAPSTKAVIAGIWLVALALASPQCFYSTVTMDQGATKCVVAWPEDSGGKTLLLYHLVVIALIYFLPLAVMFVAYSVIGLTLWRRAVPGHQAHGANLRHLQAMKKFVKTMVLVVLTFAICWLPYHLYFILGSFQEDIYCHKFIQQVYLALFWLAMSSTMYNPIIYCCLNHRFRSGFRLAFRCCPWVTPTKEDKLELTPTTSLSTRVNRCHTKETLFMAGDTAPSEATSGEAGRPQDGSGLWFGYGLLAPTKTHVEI

[10] = target: 5-hydroxytryptamine receptor 2B (Homo sapiens, UniProt P41595); assay type: cell membranes, CHO-K1, Membrane; conditions: cho-k1; note: in other assays of this panel Not Active means under 50% inhibition at 10 µM
Sequence of 5-hydroxytryptamine receptor 2B (P41595 whole entry): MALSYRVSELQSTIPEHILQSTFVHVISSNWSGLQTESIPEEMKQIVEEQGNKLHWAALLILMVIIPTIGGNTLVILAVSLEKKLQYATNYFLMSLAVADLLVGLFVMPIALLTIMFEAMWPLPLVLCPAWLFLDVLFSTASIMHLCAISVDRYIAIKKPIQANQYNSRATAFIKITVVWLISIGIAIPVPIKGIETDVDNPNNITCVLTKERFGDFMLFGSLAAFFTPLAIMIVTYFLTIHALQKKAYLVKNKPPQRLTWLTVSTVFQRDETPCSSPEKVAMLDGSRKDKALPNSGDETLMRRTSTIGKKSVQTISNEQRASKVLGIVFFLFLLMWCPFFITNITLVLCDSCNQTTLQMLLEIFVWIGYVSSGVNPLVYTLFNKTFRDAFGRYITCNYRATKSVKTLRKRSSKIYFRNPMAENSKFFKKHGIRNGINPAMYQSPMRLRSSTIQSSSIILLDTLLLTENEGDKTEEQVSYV

[11] = target: Carbonic anhydrase 2 (Homo sapiens, UniProt P00918); assay: DRUGMATRIX: Carbonic Anhydrase II enzyme inhibition (substrate: 4-Nitrophenyl acetate (4-NPA)); assay type: tissue-based, Erythrocyte; conditions: erythrocyte; Not Active = under 50% inhibition at 10 µM
[12] = DRUGMATRIX: Glutamate, AMPA radioligand binding (ligand: [3H] AMPA); assay type: cell membranes, Rattus norvegicus, Wistar, Cerebral cortex, Membrane; conditions: Not Active = under 50% inhibition at 10 µM
[13] = target: Tyrosine-protein kinase Lck (Homo sapiens, UniProt P06239); assay: DRUGMATRIX: Protein Tyrosine Kinase, LCK enzyme inhibition (substrate: Poly(Glu:Tyr)); assay type: cell-based, Insect cells; conditions: insect cells; Not Active = under 50% inhibition at 10 µM
Sequence of Tyrosine-protein kinase Lck (P06239 whole entry): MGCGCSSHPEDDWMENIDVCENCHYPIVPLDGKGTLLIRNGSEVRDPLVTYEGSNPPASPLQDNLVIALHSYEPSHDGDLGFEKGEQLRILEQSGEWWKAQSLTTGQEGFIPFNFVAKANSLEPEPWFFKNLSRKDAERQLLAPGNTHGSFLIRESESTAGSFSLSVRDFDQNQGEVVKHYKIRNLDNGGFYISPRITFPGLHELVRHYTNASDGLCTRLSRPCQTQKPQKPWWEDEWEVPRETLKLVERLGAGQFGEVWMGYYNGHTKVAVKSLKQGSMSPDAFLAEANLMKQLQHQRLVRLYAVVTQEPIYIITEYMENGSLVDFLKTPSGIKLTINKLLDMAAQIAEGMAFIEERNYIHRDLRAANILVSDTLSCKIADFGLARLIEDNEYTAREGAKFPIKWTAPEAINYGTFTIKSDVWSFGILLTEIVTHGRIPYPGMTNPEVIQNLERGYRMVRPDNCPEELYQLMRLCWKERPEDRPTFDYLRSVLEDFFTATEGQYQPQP

[14] = target: Substance-P receptor (Homo sapiens, UniProt P25103); assay type: cell membranes, CHO, Membrane; conditions: cho; note: in other assays of this panel Not Active means under 50% inhibition at 10 µM
Sequence of Substance-P receptor (P25103 whole entry): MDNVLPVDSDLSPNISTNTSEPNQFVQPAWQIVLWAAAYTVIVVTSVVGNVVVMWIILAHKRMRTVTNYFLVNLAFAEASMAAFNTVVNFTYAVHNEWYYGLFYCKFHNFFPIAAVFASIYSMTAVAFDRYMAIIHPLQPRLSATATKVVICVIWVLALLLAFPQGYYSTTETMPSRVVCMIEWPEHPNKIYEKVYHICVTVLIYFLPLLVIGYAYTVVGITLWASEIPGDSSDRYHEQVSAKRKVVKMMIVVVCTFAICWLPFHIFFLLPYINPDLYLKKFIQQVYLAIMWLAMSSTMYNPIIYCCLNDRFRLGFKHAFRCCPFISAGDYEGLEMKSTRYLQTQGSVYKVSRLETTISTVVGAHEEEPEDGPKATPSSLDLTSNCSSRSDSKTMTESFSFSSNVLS

[15] = DRUGMATRIX: Atrial Natriuretic Factor (ANF) radioligand binding (ligand: [125I] ANF (rat)); assay type: cell membranes, Cavia porcellus, Dunkin-Hartley, Adrenal gland, Membrane; conditions: Not Active = under 50% inhibition at 10 µM

c1ccc2[nH]c(-c3cscn3)nc2c1 [THIABENDAZOLE]
Not Active: IC50 [1] | IC50 [2] | IC50 [3] | IC50 [4] | IC50 [5] | IC50 [6] | Ki [6] | IC50 [7] | Ki [7] | IC50 [8] | Ki [8] | IC50 [9] | IC50 [10] | IC50 [11] | IC50 [12] | Ki [12] | IC50 [13] | IC50 [14] | IC50 [15] | Ki [15]

Cc1cc(NS(=O)(=O)c2ccc(N)cc2)no1 [SULFAMETHOXAZOLE]
Not Active: IC50 [1] | IC50 [2] | IC50 [3] | IC50 [4] | IC50 [5] | IC50 [6] | Ki [6] | IC50 [7] | Ki [7] | IC50 [8] | Ki [8] | IC50 [9] | IC50 [10] | IC50 [11] | IC50 [12] | Ki [12] | IC50 [13] | IC50 [14] | IC50 [15] | Ki [15]

COc1c(C)c2c(c(O)c1C/C=C(\C)CCC(=O)OCCN1CCOCC1)C(=O)OC2 [MYCOPHENOLATE MOFETIL]
Not Active: IC50 [1] | IC50 [2] | IC50 [3] | IC50 [4] | IC50 [5] | IC50 [6] | Ki [6] | IC50 [7] | Ki [7] | IC50 [8] | Ki [8] | IC50 [9] | IC50 [10] | IC50 [11] | IC50 [12] | Ki [12] | IC50 [13] | IC50 [14] | IC50 [15] | Ki [15]

Nc1ccc(S(=O)(=O)Nc2ccnn2-c2ccccc2)cc1 [SULFAPHENAZOLE]
Not Active: IC50 [1] | IC50 [2] | IC50 [3] | IC50 [4] | IC50 [5] | IC50 [6] | Ki [6] | IC50 [7] | Ki [7] | IC50 [8] | Ki [8] | IC50 [9] | IC50 [10] | IC50 [11] | IC50 [12] | Ki [12] | IC50 [13] | IC50 [14] | IC50 [15] | Ki [15]

CC1CN(c2cc3c(cc2F)c(=O)c(C(=O)O)cn3-c2ccc(F)cc2F)CCN1 (stereo not given) [TEMAFLOXACIN]
Not Active: IC50 [1] | IC50 [2] | IC50 [3] | IC50 [4] | IC50 [5] | IC50 [6] | Ki [6] | IC50 [7] | Ki [7] | IC50 [8] | Ki [8] | IC50 [9] | IC50 [10] | IC50 [11] | IC50 [12] | Ki [12] | IC50 [13] | IC50 [14] | IC50 [15] | Ki [15]

IVERMECTIN
Not Active: IC50 [1] | Ki [1] | IC50 [2] | Ki [2] | IC50 [3] | Ki [3] | IC50 [4] | Ki [4] | IC50 [5] | Ki [5] | IC50 [6] | Ki [6] | IC50 [7] | Ki [7] | IC50 [8] | Ki [8] | IC50 [9] | Ki [9] | IC50 [10] | Ki [10] | IC50 [11] | Ki [11] | IC50 [12] | Ki [12] | IC50 [13] | Ki [13] | IC50 [14] | Ki [14] | IC50 [15] | Ki [15]

CN[C@H](CC(C)C)C(=O)N[C@H]1C(=O)N[C@@H](CC(N)=O)C(=O)N[C@H]2C(=O)N[C@H]3C(=O)N[C@H](C(=O)N[C@H](C(=O)O)c4cc(O)cc(O)c4-c4cc3ccc4O)[C@H](O)c3ccc(c(Cl)c3)Oc3cc2cc(c3O[C@@H]2O[C@H](CO)[C@@H](O)[C@H](O)[C@H]2O[C@H]2C[C@](C)(N)[C@H](O)[C@H](C)O2)Oc2ccc(cc2Cl)[C@H]1O [VANCOMYCIN]
Not Active: IC50 [1] | IC50 [2] | IC50 [3] | IC50 [4] | IC50 [5] | IC50 [6] | Ki [6] | IC50 [7] | Ki [7] | IC50 [8] | Ki [8] | IC50 [9] | IC50 [10] | IC50 [11] | IC50 [12] | Ki [12] | IC50 [13] | IC50 [14] | IC50 [15] | Ki [15]
